{
  "source": "patent US6458767B1",
  "about": "“Use of peptides inhibitory for thrombospondin dependent TGF-β activation in the treatment of kidney disease” (The UAB Research Foundation, priority 1994, dated 2002)",
  "key": {"[1]": {"system": "rats with anti-Thy1 disease", "experiment": "Glomerular extracellular matrix formation (Masson's Trichrome, collagen I, collagen IV, fibronectin stains) in the anti-Thy1 model", "format": "in vivo, rat", "text": "(§1) Experimental design. Experimental mesangial proliferative glomerulonephritis was induced using the monoclonal mouse anti-Thy1 antibody OX-7. Peptides were continuously infused intravenously (i.v.) via jugular vein using osmotic minipumps starting sixteen hours after disease induction. The effects of the hexapeptide AAWSHW (SEQ ID NO:22) (that interferes with the TSP1-mature TGF-β interaction) or the LSKL-peptide (SEQ ID NO:21) (that blocks the TSP1-LAP interaction) were compared to a control peptide (SLLK) in the anti-Thy1 model. Tissues from different time points (days three, five, eight) of this experiment were analyzed in regard to mesangiolysis, macrophage-influx, MC-proliferation, MC-activation, microaneurysm and matrix formation, GEN proliferation, TSP1, TGF-β1 and 2, as well as TGF-βRI and RII. Functional parameters such as blood pressure, proteinuria, and creatinine clearance were also determined. On day eight, glomerular secretion of active TGF-β was determined in individual animals by incubating isolated glomeruli for twenty-four hours in DMEM and measuring TGF-β activity in glomerular supernatants using the NRK-bioassay.\n(§2) Animal model Experimental mesangial proliferative glomerulonephritis (anti-Thy1 model) was induced in Sprague Dawley rats (180-200 g; Charles River, Sulzfeld, Germany) by a single injection of 1 mg/kg of the mouse monoclonal anti-Thy1 antibody OX-7 (European Collection of Animal Cell Culture, Salisbury, England). In this animal model, complete anti-Thy1 antibody binding occurs within an hour (Johnson et al. (1991) Am. J. Pathol. 138 (2), 313-21). To avoid potential interference of the LAP-peptides with anti-Thy1 antibody binding and subsequent mesangiolysis, the peptide treatment was started sixteen hours after disease induction, when binding of the anti-Thy1 antibody to the mesangium and subsequent mesangiolysis had already occurred. The peptides used in this study were synthesized, purified, and analyzed as described elsewhere (Crawford et al. (1998) Cell 93, 1159-1170).\n(§3) Renal biopsies as described previously (Hugo et al. (1997) J. Clin. Invest. 100, 786-794) were performed on days three and five, and the experiment was finished on day eight. To determine DNA incorporation into proliferating cells, each animal was injected intravenously with BrdU (50 mg/kg bw) ninety minutes before the second survival biopsy was taken on day five (peak of MC proliferation). Renal biopsies were fixed in methyl Carnoy's, 10% formalin and/or OCT and snap frozen. A twenty-four hour urine collection for measurement of protein and creatinine was done from day seven to eight, when maximal proteinuria occurs in this model (unpublished observation). Blood pressure measurements were done twice before and twice after disease induction. In renal biopsies, the frequency of glomerular microaneurysms, the number of infiltrating macrophages, the number of proliferating MC, the expression of the contractile protein α-sm actin as a marker of MC-activation, and the expression of TGF-β1, TGF-β2, TGF-βRI, TGF-βRII, TSP1, as well as of extracellular matrix proteins such as collagen I, collagen IV and fibronectin were determined. For TGF-β activity measurements in individual animals on day eight, glomeruli were isolated by differential sieving (Johnson et al. (1991) Am. J. Pathol. 138 (2), 313-21) and counted using five aliquots. Glomerular isolates were discarded if purity was less than 95%. 8000 glomeruli/ml were incubated in DMEM at 37° C. After a twenty-four hour incubation period, glomerular supernatants were stored by −70° C. until TGF-β activity measurements were done.\n(§4) Peptide infusion. All peptides (at a concentration of 3.5 mg/ml) were continuously infused for seven days via a catheter in the right jugular vein using osmotic minipumps (Alzet Corp./Charles River, Sulzfeld, Germany). […]"}, "TGF-β": {"system": "TGF-β", "experiment": "Glomerular secretion of active TGF-β (NRK-bioassay of supernatants of isolated glomeruli) in anti-Thy1 rats", "format": "in vivo, rat", "text": "as §1, §2\nas §3, with “After a twenty-four hour incubation period, glomerular supernatants were stored by −70° C. until TGF-β activity measurements were done.” left out"}, "[2]": {"system": "rats with anti-Thy1 disease", "experiment": "Functional parameters (proteinuria, creatinine clearance, blood urea nitrogen, systolic blood pressure) in the anti-Thy1 model", "format": "in vivo, rat", "text": "as §1, §2, §3, §4"}, "[3]": {"system": "rats with anti-Thy1 disease", "experiment": "Mesangiolysis, microaneurysm formation and GEN-proliferation in the anti-Thy1 model", "format": "in vivo, rat", "text": "as §1, §2, §3, §4"}, "[4]": {"system": "activation of TGF-β by TSP1", "details": "background, literature; cited from earlier work"}, "[5]": {"system": "rats with anti-Thy1 disease", "experiment": "Glomerular MC-proliferation, MC-activation and macrophage influx in the anti-Thy1 model", "format": "in vivo, rat", "text": "as §1, §2, §3, §4"}, "[6]": {"system": "rats with anti-Thy1 disease", "experiment": "Glomerular immunostaining score for TGF-β1, TGF-β2, TGF-βRI, TGF-βRII and TSP1 in the anti-Thy1 model", "format": "in vivo, rat", "text": "as §1, §2, §3, §4"}, "TSP1 null mice": {"system": "TSP1 null mice", "details": "literature; cited from earlier work"}},
  "data": [
    {"substance": "Leu-Ser-Lys-Leu (LSKL; listed as Homo sapiens)", "values": [
      {"measurement": "Matrix Collagen 1 (score 0-4)", "setting": "[1]; day 3", "result": "0.1 ± 0.1", "unit": "score 0-4"},
      {"measurement": "Matrix Collagen IV (score 0-4)", "setting": "[1]; day 3", "result": "1.0 ± 0.2", "unit": "score 0-4"},
      {"measurement": "Matrix Fibronectin (score 0-4)", "setting": "[1]; day 3", "result": "1.2 ± 0.4", "unit": "score 0-4"},
      {"measurement": "Matrix Trichrome (score 0-3)", "setting": "[1]; day 3", "result": "0.4 ± 0.2", "unit": "score 0-3"},
      {"measurement": "Matrix Collagen 1 (score 0-4)", "setting": "[1]; day 5", "result": "0.7 ± 0.4", "unit": "score 0-4"},
      {"measurement": "Matrix Collagen IV (score 0-4)", "setting": "[1]; day 5", "result": "1.9 ± 0.3", "unit": "score 0-4"},
      {"measurement": "Matrix Fibronectin (score 0-4)", "setting": "[1]; day 5", "result": "1.9 ± 0.6", "unit": "score 0-4"},
      {"measurement": "Matrix Trichrome (score 0-3)", "setting": "[1]; day 5", "result": "0.7 ± 0.2", "unit": "score 0-3"},
      {"measurement": "Matrix Collagen 1 (score 0-4)", "setting": "[1]; day 8", "result": "0.8 ± 0.5", "unit": "score 0-4"},
      {"measurement": "Matrix Collagen IV (score 0-4)", "setting": "[1]; day 8", "result": "1.2 ± 0.4", "unit": "score 0-4"},
      {"measurement": "Matrix Fibronectin (score 0-4)", "setting": "[1]; day 8", "result": "0.9 ± 0.6", "unit": "score 0-4"},
      {"measurement": "Matrix Trichrome (score 0-3)", "setting": "[1]; day 8", "result": "1.2 ± 0.3", "unit": "score 0-3"},
      {"measurement": "extracellular matrix formation as determined by Trichrome staining", "setting": "[1]; day eight, in words", "result": "markedly suppressed"},
      {"measurement": "glomerular accumulation of collagen I, collagen IV and fibronectin by immunohistochemistry", "setting": "[1]; time course of anti-Thy1 disease, in words", "result": "reduced glomerular accumulation of all three extracellular matrix proteins"},
      {"measurement": "Active TGF-β (colonies > 62 um)", "setting": "TGF-β; day 8 glomeruli, 24 h supernatant, NRK-bioassay, continuous i.v. peptide infusion", "result": "154 ± 50", "unit": "colonies > 62 um"},
      {"measurement": "glomerular secretion of active TGF-β compared to control peptide (SLLK) treated rats", "setting": "TGF-β; day eight glomeruli, p<0.01", "result": "markedly reduced"},
      {"measurement": "Proteinuria (mg/24 hours)", "setting": "[2]; day 8 (urine collection day seven to eight)", "result": "24 ± 20", "unit": "mg/24 hours"},
      {"measurement": "twenty-four hour proteinuria", "setting": "[2]; days seven to eight", "result": "24±20", "unit": "mg/twenty-four hours"},
      {"measurement": "Blood urea nitrogen", "setting": "[2]; rat, in vivo", "result": "33.2 ± 9.4", "unit": "mg/dL"},
      {"measurement": "Glomerular Microaneurysm (in percent)", "setting": "[3]; day 3", "result": "16.7 ± 10.0", "unit": "%"},
      {"measurement": "Glomerular Microaneurysm (in percent)", "setting": "[3]; day 5", "result": "13.8 ± 19.9", "unit": "%"},
      {"measurement": "Glomerular Microaneurysm (in percent)", "setting": "[3]; day 8", "result": "2.2 ± 2.7", "unit": "%"},
      {"measurement": "Glomerular GEN-proliferation (double staining for RECA-1 and PCNA)", "setting": "[3]; day three", "result": "2.0±0.5"},
      {"measurement": "mesangiolysis scores", "setting": "[3]; day three, scale 0-IV", "result": "2.56±0.3"},
      {"measurement": "block of activation of TGF-β by TSP1", "setting": "[4]", "result": "able to block activation of TGF-β by TSP1"},
      {"measurement": "MC-activation α-sm actin (score 0-4)", "setting": "[5]; day 3", "result": "0.6 ± 0.3", "unit": "score 0-4"},
      {"measurement": "MC-proliferation (OX-7 + /PCNA + cells/glomerulus)", "setting": "[5]; day 3", "result": "3.3 ± 0.6", "unit": "cells/glomerulus"},
      {"measurement": "Macrophages (ED-1 + cells/glomerulus)", "setting": "[5]; day 3", "result": "4.3 ± 2.0", "unit": "cells/glomerulus"},
      {"measurement": "MC-activation α-sm actin (score 0-4)", "setting": "[5]; day 5", "result": "2.5 ± 0.4", "unit": "score 0-4"},
      {"measurement": "MC-proliferation (OX-7 + /BrdU + cells/glomerulus)", "setting": "[5]; day 5", "result": "3.9 ± 0.6", "unit": "cells/glomerulus"},
      {"measurement": "MC-proliferation (OX-7 + /PCNA + cells/glomerulus)", "setting": "[5]; day 5", "result": "7.9 ± 1.0", "unit": "cells/glomerulus"},
      {"measurement": "Macrophages (ED-1 + cells/glomerulus)", "setting": "[5]; day 5", "result": "1.0 ± 0.6", "unit": "cells/glomerulus"},
      {"measurement": "MC-activation α-sm actin (score 0-4)", "setting": "[5]; day 8", "result": "2.4 ± 0.5", "unit": "score 0-4"},
      {"measurement": "MC-proliferation (OX-7 + /PCNA + cells/glomerulus)", "setting": "[5]; day 8", "result": "4.6 ± 0.5", "unit": "cells/glomerulus"},
      {"measurement": "Macrophages (ED-1 + cells/glomerulus)", "setting": "[5]; day 8", "result": "0.7 ± 0.5", "unit": "cells/glomerulus"},
      {"measurement": "MC activation (de novo expression of α-sm-actin)", "setting": "[5]; in words", "result": "did not significantly alter"},
      {"measurement": "TGF-β1 (score 0-4)", "setting": "[6]; day 3", "result": "0.1 ± 0.1", "unit": "score 0-4"},
      {"measurement": "TGF-β2 (score 0-4)", "setting": "[6]; day 3", "result": "0.2 ± 0.1", "unit": "score 0-4"},
      {"measurement": "TGF-βRI (score 0-4)", "setting": "[6]; day 3", "result": "0.2 ± 0.2", "unit": "score 0-4"},
      {"measurement": "TGF-βRII (score 0-4)", "setting": "[6]; day 3", "result": "0.2 ± 0.1", "unit": "score 0-4"},
      {"measurement": "TSP I (score 0-4)", "setting": "[6]; day 3", "result": "0.3 ± 0.2", "unit": "score 0-4"},
      {"measurement": "TGF-β1 (score 0-4)", "setting": "[6]; day 5", "result": "1.8 ± 0.6", "unit": "score 0-4"},
      {"measurement": "TGF-β2 (score 0-4)", "setting": "[6]; day 5", "result": "1.2 ± 0.6", "unit": "score 0-4"},
      {"measurement": "TGF-βRI (score 0-4)", "setting": "[6]; day 5", "result": "1.4 ± 0.3", "unit": "score 0-4"},
      {"measurement": "TGF-βRII (score 0-4)", "setting": "[6]; day 5", "result": "1.3 ± 0.3", "unit": "score 0-4"},
      {"measurement": "TSP I (score 0-4)", "setting": "[6]; day 5", "result": "1.4 ± 0.6", "unit": "score 0-4"},
      {"measurement": "TGF-β1 (score 0-4)", "setting": "[6]; day 8", "result": "1.7 ± 0.6", "unit": "score 0-4"},
      {"measurement": "TGF-β2 (score 0-4)", "setting": "[6]; day 8", "result": "0.6 ± 0.6", "unit": "score 0-4"},
      {"measurement": "TGF-βRI (score 0-4)", "setting": "[6]; day 8", "result": "1.4 ± 0.4", "unit": "score 0-4"},
      {"measurement": "TGF-βRII (score 0-4)", "setting": "[6]; day 8", "result": "0.9 ± 0.6", "unit": "score 0-4"},
      {"measurement": "TSP I (score 0-4)", "setting": "[6]; day 8", "result": "0.5 ± 0.3", "unit": "score 0-4"}
    ]},
    {"substance": "KRFK: TGF-β activating peptide, KRFK amino acid sequence of the TSP1 molecule (listed as Homo sapiens)", "values": [
      {"measurement": "histological changes in TSP1 null mice", "setting": "TSP1 null mice", "result": "reverted toward wild type"}
    ]}
  ]
}
